The values that follow come from patent publication US20250346585A1 (Alexion Pharmaceuticals, Inc., priority 2022, published 2025).

Sequence of Human complement C1s enzyme (P09871 438-688 limits assumed): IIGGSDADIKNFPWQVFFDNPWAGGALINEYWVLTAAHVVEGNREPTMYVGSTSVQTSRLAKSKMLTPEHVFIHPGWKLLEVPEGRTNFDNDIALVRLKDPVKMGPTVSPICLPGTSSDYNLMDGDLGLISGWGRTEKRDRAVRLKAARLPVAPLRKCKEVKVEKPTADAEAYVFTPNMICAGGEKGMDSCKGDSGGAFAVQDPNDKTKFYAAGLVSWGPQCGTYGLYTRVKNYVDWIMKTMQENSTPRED
Sequence of Human complement C1s enzyme (P09871 16-437 partner limits assumed): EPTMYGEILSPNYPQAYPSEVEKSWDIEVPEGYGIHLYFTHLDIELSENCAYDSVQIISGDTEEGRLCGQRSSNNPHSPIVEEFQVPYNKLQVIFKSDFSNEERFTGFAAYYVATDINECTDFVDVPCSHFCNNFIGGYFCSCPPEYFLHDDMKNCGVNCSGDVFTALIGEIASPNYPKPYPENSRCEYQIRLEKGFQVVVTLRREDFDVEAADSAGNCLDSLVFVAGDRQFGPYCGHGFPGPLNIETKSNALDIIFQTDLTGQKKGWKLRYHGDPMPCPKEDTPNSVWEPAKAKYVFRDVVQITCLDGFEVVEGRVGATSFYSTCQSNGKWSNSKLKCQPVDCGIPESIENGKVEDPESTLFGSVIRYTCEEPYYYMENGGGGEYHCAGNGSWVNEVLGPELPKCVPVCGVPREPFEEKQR

The first assay concerns the target Human complement C1s enzyme (Homo sapiens (Human), UniProt P09871). The experiment in a line: Human C1s enzyme assay. It counts as biochemical. The conditions noted are these: Human complement C1s enzyme 1.16 nM, substrate Z-L-Lys-SBzl 100 μM, assay of Example 3; read-out: IC50 (Stars). Summed up: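 Purified serum-derived human C1s (1.16 nM final) preincubated 5 min at room temperature with compound in 50 mM Tris, 1 M NaCl, pH 7.5. Z-L-Lys-SBzl thioester substrate and DTNB added (100 μM each, final); A405 read every 30 s for 30 min. IC50 from nonlinear regression of reaction rates against compound concentration.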
Take `C[C@@H](NC(=O)[C@@H]1C[C@@H](OC(F)F)CN1C(=O)CN1Cc2cc(-c3ccccc3)ccc2C1=O)c1cc(C(=N)N)cs1` [Compound 385, (2S,4R)—N—((R)-1-(4-carbamimidoylthiophen-2-yl)ethyl)-4-(difluoromethoxy)-1-(2-(1-oxo-5-phenylisoindolin-2-yl)acetyl)pyrrolidine-2-carboxamide]: the IC50 is < 100 nM. Still for that read-out and setting: next, `C[C@@H](NC(=O)[C@@H]1CC2(CN1C(=O)CN1Cc3ccc(-c4ccccc4)cc3C1=O)OCCO2)c1cc(C(=N)N)cs1` [Compound 386, (S)—N—((R)-1-(4-carbamimidoylthiophen-2-yl)ethyl)-7-(2-(1-oxo-6-phenylisoindolin-2-yl)acetyl)-1,4-dioxa-7-azaspiro[4.4]nonane-8-carboxamide]: < 100 nM. `C[C@@]12C[C@@H]1N(C(=O)CNC(=O)c1ccc(Oc3ccccc3)cc1)[C@H](C(=O)NCc1cccc(Cl)c1Cl)C2` [Compound 387, (1S,3S,5S)—N-(2,3-dichlorobenzyl)-5-methyl-2-((4-phenoxybenzoyl)glycyl)-2-azabicyclo[3.1.0]hexane-3-carboxamide]: the IC50 was > 1000 nM. Consider `Cc1ccc(-c2cnc(C(=O)NCC(=O)N3CC4(C[C@H]3C(=O)N[C@H](C)c3cc(C(=N)N)cs3)OCCO4)c(F)c2)cc1` [Compound 388, (S)—N—((R)-1-(4-carbamimidoylthiophen-2-yl)ethyl)-7-((3-fluoro-5-(p-tolyl)picolinoyl)glycyl)-1,4-dioxa-7-azaspiro[4.4]nonane-8-carboxamide], for which the half-maximal inhibitory concentration (IC50) was < 100 nM. Regarding `COC[C@@]1(F)C[C@@H](C(=O)N[C@H](C)c2cc(C(=N)N)cs2)N(C(=O)CNC(=O)c2ccc3[nH]c4ccccc4c3c2)C1` [Compound 389, N-(2-((2S,4R)-2-(((R)-1-(4-carbamimidoylthiophen-2-yl)ethyl)carbamoyl)-4-fluoro-4-(methoxymethyl)pyrrolidin-1-yl)-2-oxoethyl)-9H-carbazole-3-carboxamide], the IC50 is < 100 nM. Regarding `CC1c2ccccc2-c2ccc(C(=O)NCC(=O)N3C[C@H](S(C)(=O)=O)C[C@H]3C(=O)N[C@H](C)c3cc(C(=N)N)cs3)cc21` (stereo partly drawn) [Compound 390, (2S,4R)—N—((R)-1-(4-carbamimidoylthiophen-2-yl)ethyl)-1-((9-methyl-9H-fluorene-2-carbonyl)glycyl)-4-(methylsulfonyl)pyrrolidine-2-carboxamide], the 50% inhibitory concentration (IC50) is < 100 nM. With `C[C@@H](NC(=O)[C@@H]1CC2(CN1C(=O)CNC(=O)c1ccc3nc4ccccc4cc3c1)OCCO2)c1cc(C(=N)N)cs1` [Compound 391, (S)-7-((acridine-2-carbonyl)glycyl)-N—((R)-1-(4-carbamimidoylthiophen-2-yl)ethyl)-1,4-dioxa-7-azaspiro[4.4]nonane-8-carboxamide], the half-inhibitory concentration (IC50) is < 100 nM. Consider `C[C@@H](NC(=O)[C@@H]1C[C@@H](S(C)(=O)=O)CN1C(=O)CNC(=O)c1ccc2c(c1)-c1ccccc1C2OC(F)F)c1cc(C(=N)N)cs1` (stereo partly drawn) [Compound 392, (2S,4R)—N—((R)-1-(4-carbamimidoylthiophen-2-yl)ethyl)-1-((9-(difluoromethoxy)-9H-fluorene-3-carbonyl)glycyl)-4-(methylsulfonyl)pyrrolidine-2-carboxamide], for which the IC50 was < 100 nM. As to `COC[C@@]1(F)C[C@@H](C(=O)N[C@H](C)c2cc(C(=N)N)cs2)N(C(=O)CNC(=O)c2ccc3c(c2)-c2ccccc2S3(=O)=O)C1` [Compound 393, (2S,4R)—N—((R)-1-(4-carbamimidoylthiophen-2-yl)ethyl)-1-((5,5-dioxidodibenzo[b,d]thiophene-2-carbonyl)glycyl)-4-fluoro-4-(methoxymethyl) pyrrolidine-2-carboxamide], the half-inhibitory concentration (IC50) is < 100 nM. As to `COC[C@@]1(F)C[C@@H](C(=O)N[C@H](C)c2cc(C(=N)N)cs2)N(C(=O)CNC(=O)c2ccc3sc4ccccc4c3c2)C1` [Compound 394, (2S,4R)—N—((R)-1-(4-carbamimidoylthiophen-2-yl)ethyl)-1-((dibenzo[b,d]thiophene-2-carbonyl)glycyl)-4-fluoro-4-(methoxymethyl)pyrrolidine-2-carboxamide], the IC50 was < 100 nM. Same read-out and setting: next, `CO[C@@H]1C[C@@H](C(=O)N[C@H](CO)c2cc(C(=N)N)cs2)N(C(=O)CNC(=O)c2ccc3c(c2)-c2ccccc2C3(C)C)C1` [Compound 395, (2S,4R)—N—((R)-1-(4-carbamimidoylthiophen-2-yl)-2-hydroxyethyl)-1-((9,9-dimethyl-9H-fluorene-3-carbonyl)glycyl)-4-methoxypyrrolidine-2-carboxamide]: < 100 nM. With `N=C(N)c1csc([C@@H](CO)NC(=O)[C@@H]2C[C@@H](OC(F)F)CN2C(=O)CNC(=O)c2ccc3c(c2)C(F)(F)c2ccccc2-3)c1` [Compound 396, (2S,4R)—N—((R)-1-(4-carbamimidoylthiophen-2-yl)-2-hydroxyethyl)-1-((9,9-difluoro-9H-fluorene-2-carbonyl)glycyl)-4-(difluoromethoxy) pyrrolidine-2-carboxamide], the IC50 was < 100 nM. For the molecule `COC[C@@]1(F)C[C@@H](C(=O)N[C@H](CO)c2cc(C(=N)N)cs2)N(C(=O)CNC(=O)c2ccc3c(c2)C(F)(F)c2ccccc2-3)C1` [Compound 397, (2S,4R)—N—((R)-1-(4-carbamimidoylthiophen-2-yl)-2-hydroxyethyl)-1-((9,9-difluoro-9H-fluorene-2-carbonyl)glycyl)-4-fluoro-4-(methoxymethyl)pyrrolidine-2-carboxamide], the half-maximal inhibitory concentration (IC50) was < 100 nM.

The same assay, now with this note: Human complement C1s enzyme 1.16 nM, substrate Z-L-Lys-SBzl; assay of Example 3; read-out: IC50 (Stars).
Consider `N=C(N)c1csc([C@@H](CO)NC(=O)[C@@H]2C[C@](F)(CF)CN2C(=O)CNC(=O)c2ccc3c(c2)-c2ccccc2C3(F)F)c1` [Compound 398, (2S,4R)—N—((R)-1-(4-carbamimidoylthiophen-2-yl)-2-hydroxyethyl)-1-((9,9-difluoro-9H-fluorene-3-carbonyl)glycyl)-4-fluoro-4-(fluoromethyl)pyrrolidine-2-carboxamide], for which the half-maximal inhibitory concentration (IC50) was < 100 nM. On the same count and under the same terms, next, `CC1(C)c2ccccc2-c2cc(C(=O)NCC(=O)N3CC4(C[C@H]3C(=O)N[C@H](CO)c3cc(C(=N)N)cs3)OCCO4)ccc21` [Compound 399, (S)—N—((R)-1-(4-carbamimidoylthiophen-2-yl)-2-hydroxyethyl)-7-((9,9-dimethyl-9H-fluorene-3-carbonyl)glycyl)-1,4-dioxa-7-azaspiro[4.4]nonane-8-carboxamide]: < 100 nM; `CS(=O)(=O)[C@@H]1C[C@@H](C(=O)N[C@H](CO)c2cc(C(=N)N)cs2)N(C(=O)CNC(=O)c2ccc3c(c2)-c2ccccc2C3(F)F)C1` [Compound 400, (2S,4R)—N—((R)-1-(4-carbamimidoylthiophen-2-yl)-2-hydroxyethyl)-1-((9,9-difluoro-9H-fluorene-3-carbonyl)glycyl)-4-(methylsulfonyl)pyrrolidine-2-carboxamide]: < 100 nM. As for `CC1(C)c2ccccc2-c2cc(C(=O)NCC(=O)N3C[C@@](F)(CF)C[C@H]3C(=O)N[C@H](CO)c3cc(C(=N)N)cs3)ccc21` [Compound 401, (2S,4R)—N—((R)-1-(4-carbamimidoylthiophen-2-yl)-2-hydroxyethyl)-1-((9,9-dimethyl-9H-fluorene-3-carbonyl)glycyl)-4-fluoro-4-(fluoromethyl)pyrrolidine-2-carboxamide], the concentration for half-maximal inhibition (IC50) is < 100 nM.

As for `CS(=O)(=O)[C@@H]1C[C@@H](C(=O)N[C@H](CO)c2cc(C(=N)N)cs2)N(C(=O)CNC(=O)c2cccc(-c3ccc(F)cc3)c2)C1` [Compound 402, (2S,4R)—N—((R)-1-(4-carbamimidoylthiophen-2-yl)-2-hydroxyethyl)-1-((4′-fluoro-[1,1′-biphenyl]-3-carbonyl)glycyl)-4-(methylsulfonyl)pyrrolidine-2-carboxamide], the 50% inhibitory concentration (IC50) is < 100 nM.

Regarding `N=C(N)c1csc([C@@H](CO)NC(=O)[C@@H]2C[C@@H](OC(F)F)CN2C(=O)CNC(=O)c2ccc3c(c2)-c2ccccc2C3(F)F)c1` [Compound 403, (2S,4R)—N—((R)-1-(4-carbamimidoylthiophen-2-yl)-2-hydroxyethyl)-1-((9,9-difluoro-9H-fluorene-3-carbonyl)glycyl)-4-(difluoromethoxy) pyrrolidine-2-carboxamide], the IC50 was < 100 nM.

Take `Cc1ccc(-c2cccc(C(=O)NCC(=O)N3C[C@H](S(C)(=O)=O)C[C@H]3C(=O)N[C@H](CO)c3cc(C(=N)N)cs3)c2)cc1` [Compound 404, (2S,4R)—N—((R)-1-(4-carbamimidoylthiophen-2-yl)-2-hydroxyethyl)-1-((4′-methyl-[1,1′-biphenyl]-3-carbonyl)glycyl)-4-(methylsulfonyl) pyrrolidine-2-carboxamide]: the IC50 was < 100 nM. As for `N=C(N)c1csc([C@@H](CO)NC(=O)[C@@H]2C[C@](F)(CF)CN2C(=O)CNC(=O)c2ccc3c(c2)C(F)(F)c2ccccc2-3)c1` [Compound 405, (2S,4R)—N—((R)-1-(4-carbamimidoylthiophen-2-yl)-2-hydroxyethyl)-1-((9,9-difluoro-9H-fluorene-2-carbonyl)glycyl)-4-fluoro-4-(fluoromethyl)pyrrolidine-2-carboxamide], the IC50 is < 100 nM. For `CS(=O)(=O)[C@@H]1C[C@@H](C(=O)N[C@H](CO)c2cc(C(=N)N)cs2)N(C(=O)CNC(=O)c2ccc3c(c2)C(F)(F)c2ccccc2-3)C1` [Compound 406, (2S,4R)—N—((R)-1-(4-carbamimidoylthiophen-2-yl)-2-hydroxyethyl)-1-((9,9-difluoro-9H-fluorene-2-carbonyl)glycyl)-4-(methylsulfonyl)pyrrolidine-2-carboxamide], the IC50 was < 100 nM. Still for that read-out and setting: the figure for `CO[C@@H]1C[C@@H](C(=O)N[C@H](CO)c2cc(C(=N)N)cs2)N(C(=O)CNC(=O)c2ccc3c(c2)-c2ccccc2C3(F)F)C1` [Compound 407, (2S,4R)—N—((R)-1-(4-carbamimidoylthiophen-2-yl)-2-hydroxyethyl)-1-((9,9-difluoro-9H-fluorene-3-carbonyl)glycyl)-4-methoxypyrrolidine-2-carboxamide] is < 100 nM.

By IC50 is commonly meant the concentration at which inhibition is half-maximal.
